Measured values reported in patent publication US9901625B2, “Methods of regulating uptake and transcellular transport of leukocytes and therapeutics” (University of Maryland, College Park, priority 2011, dated 2018).

Experiments:
activated HUVECs [1] = test: Recruitment of molecules at sites of endothelial ICAM-1 engagement by anti-ICAM beads; assay type: cell-based, human; conditions: 15 min
[2] = tested on: activated HUVEC monolayers; test: Transport of WBCs across activated HUVEC monolayers on a porous membrane (SDF1-α chemoattractant); assay type: cell-based, human; conditions: for WBC transmigration across HUVEC monolayer: 30 min, 37° C., WBCs counted in bottom chamber; for WBC capacity to transmigrate across the porous filter in the absence of an endothelial monolayer: no HUVEC monolayer
Protocol: A confluent EC monolayer from human umbilical vein ECs was grown on a porous membrane through which peripheral lymphocytes isolated from healthy individuals (wild-type WBCs) can transmigrate, driven by the presence of the chemoattractant SDF1-α in the chamber underneath the ECs. Under control conditions, 77.7±2.3% wild-type WBCs underwent transmigration by 30 min, which was abrogated when K562 cells lacking the ICAM-1- and VCAM-1-binding integrins LFA-1 and VLA-4, respectively, were used (FIG. 1A). Transport of either peripheral blood lymphocytes (control) or K562 cells lacking ICAM-1- and VCAM-1-binding integrins of white blood cells (WBCs) across activated HUVEC monolayers assessed at 37° C. by counting WBCs in the bottom chamber underneath HUVEC, 30 min after adding WBCs to the upper chamber above HUVECs (black bars). Transmigration was alternatively performed prior (control) or after blocking integrins LFA-1 or VLA-4 on peripheral blood lymphocytes using monoclonal antibodies. The horizontal dashed line in FIG. 1A represents WBC transmigration at 4° C.
Data are normalized to control values, and represent mean and standard errors of the mean (n≧3 experiments). *, P≦0.001 by Student's t test.
Further, transport of activated peripheral blood lymphocytes (WBCs) across activated HUVEC monolayers was assessed at 37° C. by counting WBCs in the bottom chamber underneath HUVEC 30 min after adding WBCs to the upper chamber above HUVECs (FIG. 2A black bars). Absence of HUVEC monolayer was a control (FIG. 2A white bars). Transmigration was performed in the absence (control) or presence of filipin, methyl-β-cyclodextrin (Cdx) or amiloride. In accord with previous works (Tilghman R W, et al. (2002) FEBS Lett 525:83-87; Barreiro O, et al. (2005) Blood 105:2852-2861; Millan et al., 2006), WBC transmigration was inhibited by methyl-β-cyclodextrin (Cdx; 48.1±4.8% of control; FIG. 2A), an agent that depletes cholesterol from cells. […] Instead, amiloride, which affects Na^+/H^+ exchangers (Kleyman T R, et al. (1988) J Membr Biol 105:1-21) and inhibits CAM-mediated endocytosis (Muro S, et al. (2003) J Cell Sci 11 6:1599-1609), reduced WBC transmigration even to a greater extent than Cdx (38.6±3.7% of control; FIG. 2A).

HUVECs = test: Endocytosis of anti-ICAM beads by ECs in culture (HUVECs); assay type: cell-based, human; conditions: values normalized to controls
activated HUVECs [3] = test: Binding of activated WBCs to activated HUVECs (fluorescence microscopy); assay type: cell-based, human; conditions: 30 min, 37° C.
From the text: The horizontal dashed line represents binding of negative control K562 WBCs, which lack ICAM-I- and VCAM-1-binding integrins. Data are normalized to control values, and represent mean and standard errors of the mean (n≧3 experiments). *, P≦0.001 by Student's t test.

activated HUVECs [4] = test: Paracellular vs transcellular transmigration of WBCs over HUVECs on coverslips (podosome scoring); assay type: cell-based, human; conditions: for WBC TEM (WBCs projecting podosomes into/under HUVECs): 30 min, 37° C.; for arrested WBCs located away from the EC borders / diapedesis of WBCs located away from the EC borders: EC center; for paracellular TEM (transmigrating WBCs at EC border) / transcellular TEM (transmigrating WBCs at EC center): normalized to control; for paracellular TEM (transmigrating WBCs at EC border): <3 μm from cell border; for transcellular TEM (transmigrating WBCs at EC center): ≧3 μm from cell border
Protocol: The role of lipid domains and CAM-mediated endocytosis in paracellular versus transcellular diapedesis of leukocytes was examined. To distinguish between paracellular and transcellular TEM, WBCs were labeled with green-fluorescent calcein and diapedesis was evaluated by fluorescence and scanning electron microscopy as WBCs projecting podosomes (versus round-shaped WBCs) into or under ECs growing over glass coverslips (FIG. 3; FIG. 4).
Data are normalized to control values (horizontal dashed lines) and represent mean and standard errors of the mean (n≧30 WBCs). *, P≦0.05; **, P≦0.01; ***, P≦0.001 by Student's t test.

ICAM-1 = conditions: cited from earlier work

Compound | ceramide enrichment in areas of bead engulfment (activated HUVECs [1]) [% decrease] | WBC transmigration across HUVEC monolayer [2] | WBC capacity to transmigrate across the porous filter in the absence of an endothelial monolayer [2] | Internalization (%) of anti-ICAM beads (HUVECs) [%] | ICAM-1 enrichment in areas of bead engulfment (activated HUVECs [1]) [% decrease] | affected WBC binding to ECs (activated HUVECs [3]) | WBC TEM (WBCs projecting podosomes into/under HUVECs) (activated HUVECs [4]) | arrested WBCs located away from the EC borders (activated HUVECs [4]) | diapedesis of WBCs located away from the EC borders (activated HUVECs [4]) | paracellular TEM (transmigrating WBCs at EC border) (activated HUVECs [4]) [%] | transcellular TEM (transmigrating WBCs at EC center) (activated HUVECs [4]) [%] | Formation of endocytic vesicles upon ICAM-1 engagement by anti-ICAM particles (ICAM-1) | level of transcellular TEM (activated HUVECs [4]; FIG. 14C) | paracellular TEM (activated HUVECs [4]; FIG. 14C)
CCN(c1nc(N)c(C(=O)N=C(N)N)nc1Cl)C(C)C [EIPA, 5′-(N-ethyl-N-isopropyl)amiloride] | 35.6 |  |  |  |  |  |  |  |  |  |  |  |  | 
N=C(N)NC(=O)c1nc(Cl)c(N)nc1N [amiloride] |  | 38.6±3.7 % of control | Neither Cdx nor amiloride impaired | 13.8 ± 3.3 | 22.9 | Neither | 63.8±7.3 % of control | 209.1±68.1 % of control | 56.0±27.5 % of control | 139.6±34.1 | 65.5±29.7 |  |  | 
CCCCC[C@@H](O)[C@H]1C(=O)O[C@H](C)[C@@H](O)/C=C/C=C/C=C/C=C/C=C(\C)[C@@H](O)C[C@H](O)C[C@H](O)C[C@H](O)C[C@H](O)C[C@H](O)C[C@@H]1O [filipin] |  | 88.0±7.7 % of control |  | 107.2 ± 1.5 |  |  | 108.7±8.6 % of control |  |  |  |  | not affected |  | 
CN(C)CCCN1c2ccccc2CCc2ccccc21 [imipramine] | 23.6 |  |  | 61.9 ± 6.7 |  |  | 46.6±7.6 % of control |  |  |  |  |  | decreased the level of transcellular TEM | paracellular TEM increased
methyl-β-cyclodextrin [Cdx] |  | 48.1±4.8 % of control | Neither Cdx nor amiloride impaired |  | 43 | Neither | 80.5±6.8 % of control | 170.5±36.2 % of control | 71.5±14.6 % of control | 124.9±17.1 | 78.3±14.9 |  |  | 
